{"source": "patent US12655472B2", "about": "“Microbe detection method using fish analysis” (priority 2020, dated 2026)", "key": {"E. coli K-12": {"tested_on": "E. coli K-12", "experiment": "Antibiotic susceptibility evaluation through FISH analysis (ratio of test microorganisms after about 1 hour culturing)", "format": "cell-based", "procedure": "(§1) In this example, a total of two experiments were conducted on each of E. coli K-12 bacteria as test microorganisms having antibiotic susceptibility, and E. coli ER7 bacteria as test microorganisms having antibiotic resistance, and each group was set to include E. faecalis bacteria having resistance to Cefotaxime.\n(§2) The number or ratio of initial microorganisms in the first microbial group, the second microbial group, and the third microbial group was set identically.\n(§3) In an embodiment, E. coli K-12 bacteria, antibiotic-resistant E. coli ER7 bacteria, and E. faecalis resistant to cefotaxime were used, and each strain was cultured up to OD 600=0.5 to obtain a sample containing the test microorganisms. On the other hand, after treating the sample with antibiotics, the amount of the test microorganisms was quantified by imaging at OD 600. In this case, the imaging process was performed by centrifugation at 3,000 g for 3 min, concentrating the sample 10-fold and fixing the same on a glass substrate coated with Vectabond.\n(§4) To fix bacterial samples, a 50:1 solution of acetone and Vectabond was dropped onto a sample dish. Next, the sample dish was incubated at room temperature for 5 minutes, and washed 2 to 3 times with tertiary water, and then the water was completely removed therefrom. Thereafter, the test microorganisms samples of Example 6 were dropped on the coated sample dish, and incubated at room temperature for 30 minutes, and the remaining sample was washed three times. Next, a 3.7% formaldehyde solution was dropped on the sample dish on which the sample was fixed, and then the fixation was performed for 30 minutes at room temperature. Afterwards, it was washed 2 to 3 times with nuclease-free tertiary water. […] Finally, after immersing the sample in a 2×SSC solution diluted with nuclease-free tertiary […], a fluorescence image of the sample was acquired using a confocal fluorescence microscope."}, "E. faecalis": {"tested_on": "E. faecalis", "experiment": "Antibiotic susceptibility evaluation through FISH analysis (ratio of test microorganisms after about 1 hour culturing)", "format": "cell-based", "details": "first microbial group treated and cultured with antibiotics", "procedure": "as §1, §2, §3, §4"}}, "data": [{"compound": "CO/N=C(\\C(=O)N[C@@H]1C(=O)N2C(C(=O)O)=C(COC(C)=O)CS[C@H]12)c1csc(N)n1", "note": "[cefotaxime]", "values": [{"measurement": "number of population of E. coli K-12", "setting": "E. coli K-12; first microbial group treated and cultured with antibiotics, about 1 hour", "result": "rapidly reduced"}, {"measurement": "ratio of E. coli and E. faecalis", "setting": "E. coli K-12; first microbial group, mixed E. coli and E. faecalis sample treated with antibiotic and cultured for 1 hour", "result": "ratio of E. coli and E. faecalis changed"}, {"measurement": "growth of E. faecalis", "setting": "E. faecalis", "result": "continued to grow"}]}]}
